Results from patent publication US20190002436A1, “RESPIRATORY SYNCYTIAL VIRUS INHIBITORS” (MEDIVIR AB, priority 2015, published 2019).
Like-named read-outs stand apart in the source and are kept apart here.

System: RSV (Long)
Test: RSV cytopathic effect (CPE)-based viral replication assay
Format: cell-based, respiratory syncytial virus (RSV)
Settings: read-out: EC50 (nm)
Experimental: Example A: RSV Cytopathic Effect
Compounds of the invention are initially tested in a cytopathic effect (CPE)-based viral replication assay using immortalized cells and a laboratory strain of RSV (Long). This assay evaluates the ability of a compound to inhibit viral replication.
Assay plates are prepared by seeding 2,500 HEp-2 cells (ATCC) per well of a 384-well black clear-bottom plate (Greiner Bio-One) in 20 μL of assay media (defined as DMEM supplemented with 2% heat-inactivated fetal bovine serum and 1% Penicillin/Streptomycin). Assay plates are incubated overnight at 37° C. in an incubator containing 5% CO2. The following day, a 10-point serial dilution of test compound is prepared in DMSO. Compounds are subsequently diluted with assay media and 20 μL of diluted compound (containing 1.5% DMSO) is transferred to an assay plate for evaluation of antiviral activity.
For the CPE assay, cells are infected at a Multiplicity of Infection (MOI) of 0.015 using 20 μL of RSV Long (ATCC) diluted in assay media. The DMSO concentration is constant throughout the assay plate, including the negative and positive controls. The assay plate is incubated for 3 days at 37° C. in an incubator containing 5% CO2. Cell viability is evaluated with the addition of 10 μL of CellTiter-Glo (ProMega). Luminescence is measured using an EnVision plate reader (Perkin Elmer). EC50 values are calculated using the raw data from the CPE assays.

[1] = human respiratory syncytial virus, HEp-2, 72 h, HEp-2 cells infected with RSV Long at MOI 0.015, 3 days at 37° C., cell viability by CellTiter-Glo luminescence
[2] = human respiratory syncytial virus, HEp-2, 72 h
[3] = HEp-2 cells infected with RSV Long at MOI 0.015, 3 days at 37° C., cell viability by CellTiter-Glo luminescence

Row | Structure (SMILES) | EC50 [1] | further results
1 | CS(=O)(=O)N1CC2(C1)C(=O)N(Cc1ncc3ccccc3c1-c1ccc(F)c(F)c1)c1ccccc12 [Example 75] | 7.1 nM | –
2 | CS(=O)(=O)N1CC2(C1)C(=O)N(Cc1ncc3cc(Cl)ccc3c1-c1cccnc1)c1cnccc12 [Example 162, 1′-((7-chloro-4-(pyridin-3-yl)isoquinolin-3-yl)methyl)-1-(methylsulfonyl)spiro[azetidine-3,3′-pyrrolo[2,3-c]pyridin]-2′(1′H)-one] | 4.8 nM | –
3 | N#Cc1ccc(-c2c(CN3C(=O)C4(CCN(C(=O)C5(N)CC5)CC4)c4ccncc43)ncc3ccccc23)cn1 [Example 65, 5-(3-((1-(1-aminocyclopropanecarbonyl)-2′-oxospiro[piperidine-4,3′-pyrrolo[2,3-c]pyridin]-1′(2′H)-yl)methyl)isoquinolin-4-yl)picolinonitrile] | 6.4 nM | –
4 | NC(=O)c1ccc(-c2c(CN3C(=O)C4(CN(C(=O)C5(N)CC5)C4)c4ccccc43)ncc3ccccc23)cn1 [Example 2008] | 15 nM | –
5 | COC(=O)N1CCC2(CC1)C(=O)N(Cc1ncc3ccccc3c1-c1ccc(C#N)nc1)c1cnccc12 [Example 13, Methyl 1′-((4-(6-cyanopyridin-3-yl)isoquinolin-3-yl)methyl)-2′-oxo-1′,2′-dihydrospiro[piperidine-4,3′-pyrrolo[2,3-c]pyridine]-1-carboxylate] | – | EC50 [2]: 3 nM
6 | NCC(=O)N1CC2(C1)C(=O)N(Cc1ncc3ccccc3c1-c1cccnc1)c1ccccc12 [Example 152, 1-(2-Aminoacetyl)-1′-((4-(pyridin-3-yl)isoquinolin-3-yl)methyl)spiro[azetidine-3,3′-indolin]-2′-one] | 12 nM | –
7 | CN(C)C1(C(=O)N2CC3(C2)C(=O)N(Cc2ncc4ccccc4c2-c2ccc(C#N)nc2)c2ccccc23)CC1 [Example 62, 5-(3-((1-(1-(dimethylamino)cyclopropanecarbonyl)-2′-oxospiro[azetidine-3,3′-indolin]-1′-yl)methyl)isoquinolin-4-yl)picolinonitrile] | 10 nM | –
8 | O=c1n(Cc2ncc3cccc(F)c3c2CCCCO)c2cnccc2n1C1CC1 [Example 31, 1-Cyclopropyl-3-((5-fluoro-4-(4-hydroxybutyl)isoquinolin-3-yl)methyl)-1H-imidazo[4,5-c]pyridin-2(3H)-one] | 140 nM | –
9 | NC1(C(=O)N2CC3(C2)C(=O)N(Cc2ncc4ccccc4c2-c2cccnc2)c2ccccc23)CC1 [Example 147, 1-(1-aminocyclopropanecarbonyl)-1′-((4-(pyridin-3-yl)isoquinolin-3-yl)methyl)spiro[azetidine-3,3′-indolin]-2′-one] | 18 nM | –
10 | CS(=O)(=O)N1CC2(C1)C(=O)N(Cc1ncc3ccccc3c1CF)c1ccccc12 [Example 59] | – | EC50 [3]: 5.7 nM
11 | COC(=O)N1CC2(C1)C(=O)N(Cc1ncc3ccccc3c1-c1cnccn1)c1ccccc12 [Example 103, Methyl 2′-oxo-1′-((4-(pyrazin-2-yl)isoquinolin-3-yl)methyl)spiro[azetidine-3,3′-indoline]-1-carboxylate] | 18 nM | –
12 | CS(=O)(=O)N1CCC2(CC1)C(=O)N(Cc1ncc3ccccc3c1CCCCO)c1cnccc12 [Example 37c, 1′-((4-(4-Hvdroxybutyl)isoquinolin-3-yl)methyl)-1-(methylsulfonyl)spiro[piperidine-4,3′-pyrrolo[2,3-c]pyridin]-2′(1′H)-one] | – | EC50 [3]: 7.2 nM
13 | CC(C)(O)C(=O)N1CCC2(CC1)C(=O)N(Cc1ncc3ccccc3c1-c1cccnc1)c1cnccc12 [Example 138, 1-(2-hydroxy-2-methylpropanoyl)-1′-((4-(pyridin-3-yl)isoquinolin-3-yl)methyl)spiro[piperidine-4,3′-pyrrolo[2,3-c]pyridin]-2′(1′H)-one] | 3.6 nM | –
14 | O=C1CC(c2c(Cn3c(=O)n(C4CC4)c4ccncc43)ncc3ccccc23)CN1 (stereo not shown) [Example 112c, 1-cyclopropyl-3-((4-(5-oxopyrrolidin-3-yl)isoquinolin-3-yl)methyl)-1H-imidazo[4,5-c]pyridin-2(3H)-one] | – | EC50 [3]: 12 nM
15 | NC(=O)c1ccc(-c2c(CN3C(=O)C4(CCN(C(=O)[C@H]5CCCN5)CC4)c4ccncc43)ncc3ccccc23)cn1 [Example 2013] | 6.6 nM | –
16 | CS(=O)(=O)N1CCC2(CC1)C(=O)N(Cc1ncc3ccccc3c1-c1ccc(C3(N)CC3)nc1)c1cnccc12 [Example 2026] | 2.2 nM | –
17 | CN1CC2(C1)C(=O)N(Cc1ncc3ccccc3c1CCCCO)c1ccccc12 [Example 41, 1′-((4-(4-Hydroxybutyl)isoquinolin-3-yl)methyl)-1-methylspiro[azetidine-3,3′-indolin]-2′-one] | – | EC50 [2]: 660 nM
18 | CS(=O)(=O)N1CC2(C1)C(=O)N(Cc1ncc3ccccc3c1-c1cccnc1)c1ccccc12 [Example 154, 1-(Methylsulfonyl)-1′-((4-(pyridin-3-yl)isoquinolin-3-yl)methyl)spiro[azetidine-3,3′-indolin]-2′-one] | 1.4 nM | –
19 | O=C1N(Cc2ncc3ccccc3c2-c2ccc(F)nc2)c2ccccc2C12CN(CCF)C2 [Example 86, 1-(2-fluoroethyl)-1′-((4-(6-fluoropyridin-3-yl)isoquinolin-3-yl)methyl)spiro[azetidine-3,3′-indolin]-2′-one] | 20 nM | –

Second part, led by results:

Row | EC50 [1] | Structure (SMILES) | further results
20 | 5.2 nM | O=C(N1CCC2(CC1)C(=O)N(Cc1ncc3ccccc3c1-c1cccnc1)c1cnccc12)C(F)(F)F [Example 129b, 1′-((4-(Pyridin-3-yl)isoquinolin-3-yl)methyl)-1-(2,2,2-trifluoroacetyl)spiro[piperidine-4,3′-pyrrolo[2,3-c]pyridin]-2′(1′H)-one] | –
21 | 15 nM | CNC1(C(=O)N2CC3(C2)C(=O)N(Cc2ncc4ccccc4c2-c2ccc(C(N)=O)nc2)c2ccccc23)CC1 [Example 115c, 5-(3-((1-(1-(methylamino)cyclopropanecarbonyl)-2′-oxospiro[azetidine-3,3′-indolin]-1′-yl)methyl)isoquinolin-4-yl)picolinamide] | –
22 | 15 nM | O=c1n(Cc2ncc3ccccc3c2CCCCO)c2cnccc2n1S(=O)(=O)C1CC1 [Example 22b, 1-(cyclopropylsulfonyl)-3-((4-(4-hydroxybutyl)isoquinolin-3-yl)methyl)-1H-imidazo[4,5-c]pyridin-2(3H)-one] | –
23 | 1.8 nM | COC(=O)N1CC2(C1)C(=O)N(Cc1ncc3ccccc3c1-c1ccnc(F)c1)c1ccccc12 [Example 95b, Methyl 1′-((4-(2-fluoropyridin-4-yl)isoquinolin-3-yl)methyl)-2′-oxospiro[azetidine-3,3′-indoline]-1-carboxylate] | –
24 | 3.7 nM | NC1(C(=O)N2CCC3(CC2)C(=O)N(Cc2ncc4ccccc4c2-c2cncc(F)c2)c2cnccc23)CC1 [Example 106c, 1-(1-aminocyclopropanecarbonyl)-1′-((4-(5-fluoropyridin-3-yl)isoquinolin-3-yl)methyl)spiro[piperidine-4,3′-pyrrolo[2,3-c]pyridin]-2′(1′H)-one] | –
25 | 5800 nM | N[C@@H]1CCN(c2ccc3c(CCCCO)c(Cn4c(=O)n(C5CC5)c5ccncc54)ncc3c2)C1 [Example 32c, (R)-3-((7-(3-aminopyrrolidin-1-yl)-4-(4-hydroxybutyl)isoquinolin-3-yl)methyl)-1-cyclopropyl-1H-imidazo[4,5-c]pyridin-2(3H)-one] | –
26 | 17 nM | CN(C)C1(C(=O)N2CC3(C2)C(=O)N(Cc2ncc4ccccc4c2-c2ccc(C(N)=O)nc2)c2ccccc23)CC1 [Example 113b, 5-(3-((1-(1-(Dimethylamino)cyclopropanecarbonyl)-2′-oxospiro[azetidine-3,3′-indolin]-1′-yl)methyl)isoquinolin-4-yl)picolinamide] | –
27 | 42 nM | COCCN1CC2(C1)C(=O)N(Cc1ncc3ccccc3c1-c1ccc(F)nc1)c1ccccc12 [Example 85c, 1′-((4-(6-Fluoropyridin-3-yl)isoquinolin-3-yl)methyl)-1-(2-methoxyethyl)spiro[azetidine-3,3′-indolin]-2′-one] | –
28 | 5.1 nM | CC1(n2c(=O)n(Cc3ncc4ccccc4c3-c3ccc(C#N)nc3)c3ccccc32)CC1 [Example 90b, 5-(3-((3-(1-methylcyclopropyl)-2-oxo-2,3-dihydro-1H-benzo[d]imidazol-1-yl)methyl)isoquinolin-4-yl)picolinonitrile] | –
29 | 4 nM | COC(=O)N1CC2(C1)C(=O)N(Cc1ncc3ccccc3c1-c1ccc(C(N)C(F)(F)F)nc1)c1ccccc12 (stereo not shown) [Example 157b, methyl 1′-((4-(6-(1-amino-2,2,2-trifluoroethyl)pyridin-3-yl)isoquinolin-3-yl)methyl)-2′-oxospiro[azetidine-3,3′-indoline]-1-carboxylate] | –
30 | 1.3 nM | CS(=O)(=O)N1CCC2(CC1)C(=O)N(Cc1ncc3cc(Cl)ccc3c1-c1cncs1)c1ccccc12 [Example 169b, 1-((7-chloro-4-(thiazol-5-yl)isoquinolin-3-yl)methyl)-1′-(methylsulfonyl)spiro[indoline-3,4′-piperidin]-2-one] | –
31 | 0.55 nM | COC(=O)N1CC2(C1)C(=O)N(Cc1ncc3ccccc3c1-c1ccc(NS(C)(=O)=O)nc1)c1ccccc12 [Example 134b, Methyl 1′-((4-(6-(methylsulfonamido)pyridin-3-yl)isoquinolin-3-yl)methyl)-2′-oxospiro[azetidine-3,3′-indoline]-1-carboxylate] | –
